# Measurements published in patent publication US20070122471A1, “Method of improving suitability for granulation” (Takeda Pharmaceutical Company Limited, priority 2003, published 2007).
# Experiment: Wettability to binder: contact angle of binder liquid on molded product
# Assay type: physicochemical
# Details: for Contact angle with respect to molded product: immediately after dropping about 10 μL
# Text: The bulk molded product of Compound X used in Example 1, and Compound X, lactose and crystalline cellulose in Table 1 (this mixture being referred to as a granulation component) were examined on the effect of the surfactant on the wettability to a binder (10% PVP) solution for the molded product. As a binding liquid, a solution of a binder alone (A), a solution of binder+a 1% polysorbate 80 (B), and a solution of a binder+1% sodium lauryl sulfate (C) were used, and contact angle thereof were measured by using the following method.
# About 300 mg of the bulk or the granulation component was weighed, and compression molded using a plain mortar and pestle of 10.0 mmφ by an autograph (manufactured by Shimadzu Co.) under the conditions of a tableting pressure of 10 kN/pestle and a tableting speed of 10 mm/min, thus to obtain a bulk molded product or a molded product of the granulation components. Onto the flat portion of each of the molded products, about 10 μL of the above-described binder liquid was dropped using a Microsyringe (manufactured by ITO SEISAKUSHO CO., LTD.), and the solid and liquid interface immediately after dropping was photographed by a digital microscope (Keyence). After photographing, using an accompanying software, the angle between the liquid surface and the solid surface was measured and referred to as an […].
compound,measurement,setting,value
"COc1cccc([C@H]2O[C@H](CC(=O)Nc3cccc(CCC(=O)O)c3)C(=O)N(CC(C)(C)CO)c3ccc(Cl)cc32)c1OC [Compound X, 3-[3-[[(3R,5S)-7-chloro-5-(2,3-dimethoxyphenyl)-1-(3-hydroxy-2,2-dimethylpropyl)-2-oxo-1,2,3,5-tetrahydro-4,1-benzoxazepine-3-yl]acetyl]aminophenyl]propionic acid]",Contact angle with respect to molded product,binder liquid (A): binder (10% PVP) alone,56 °
same,Contact angle with respect to molded product,binder liquid (B): binder (10% PVP) + 1% polysorbate 80,33 °
same,Contact angle with respect to molded product,binder liquid (C): binder (10% PVP) + 1% sodium lauryl sulfate,28 °
same,Wettability to the binder liquid,surfactant incorporated into the binder liquid,remarkably improved
